This test concerns the target Human Factor D (Homo sapiens (Human), UniProt P00746). Kind of test: Human Factor D Assay. It is filed as biochemical. Conditions: Human Factor D 80 nM, substrate Z-L-Lys-SBzl, DTNB, A405; read-out: IC50 (Stars). The protocol: Example 2. Human Factor D Assay
Human Factor D (purified from human serum, Complement Technology, Inc.) at 80 nM final concentration is incubated with test compound at various concentrations for 5 min at room temperature in 50 mM Tris, 1M NaCl, pH 7.5. A synthetic substrate Z-L-Lys-SBzl and DTNB (Ellman's reagent) are added to final concentrations of 100 µM each. Absorbance at 405 nm (A405) is recorded at 30 second intervals for 30 minutes using a microplate spectrophotometer. IC50 values are calculated by nonlinear regression of Complement Factor D reaction rates as a function of test compound concentration.

pIC50: −log10 of the molar value.

Results on 14 molecules are retold here after patent US11053253B2, “Macrocyclic compounds for treatment of medical disorders” (Achillion Pharmaceuticals, Inc., priority 2017, dated 2021).

Broadly, the pIC50 is the negative decadic logarithm of the IC50, by convention in mol/L.

Sequence of Human Factor D (P00746 26-253): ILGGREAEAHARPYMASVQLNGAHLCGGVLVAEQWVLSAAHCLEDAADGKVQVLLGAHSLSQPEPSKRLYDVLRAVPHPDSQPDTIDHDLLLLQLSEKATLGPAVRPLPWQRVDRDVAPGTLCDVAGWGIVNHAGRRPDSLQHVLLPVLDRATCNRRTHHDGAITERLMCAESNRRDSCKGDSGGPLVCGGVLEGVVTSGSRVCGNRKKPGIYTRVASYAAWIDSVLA

In the case of `CC(=O)N[C@H]1CC=CCOCc2ccc(Br)nc2NC(=O)[C@@H]2C[C@@]3(CNC1=O)C[C@H]3N2C(=O)Cn1nc(C(C)=O)c2cc(-c3cnc(C)nc3)ccc21` [Compound T-22, N-((41R,43S,45R,8S)-42-(2-(3-acetyl-5-(2-methylpyrimidin-5-yl)-1H-indazol-1-yl)acetyl)-16-bromo-3,7-dioxo-13-oxa-42,2,6-triaza-1(2,3)-pyridina-4(3,5)-bicyclo[3.1.0]hexanacyclotetradecaphan-10-en-8-yl)acetamide], the negative logarithm of the IC50 (pIC50) is above 6.00.
With `CC(=O)c1nn2c3c(cc(-c4cnc(C)nc4)cc13)CCCCCCCCOC[C@@]13C[C@@H](C(=O)Nc4nc(Br)ccc4C)N(C(=O)C2)[C@@H]1C3` [Compound T-23, (41R,43S,45S)-13-acetyl-N-(6-bromo-3-methylpyridin-2-yl)-15-(2-methylpyrimidin-5-yl)-3-oxo-11H-6-oxa-42-aza-1(1,7)-indazola-4(2,5)-bicyclo[3.1.0]hexanacyclotetradecaphane-43-carboxamide], the pIC50 is above 6.00.
As for `CC(=O)c1nn2c3c(cc(-c4cnc(C)nc4)cc13)CCCCCCCCCOC[C@@]13C[C@@H](C(=O)Nc4nc(Br)ccc4C)N(C(=O)C2)[C@@H]1C3` [Compound T-24, (41R,43S,45S)-13-acetyl-N-(6-bromo-3-methylpyridin-2-yl)-15-(2-methylpyrimidin-5-yl)-3-oxo-11H-6-oxa-42-aza-1(1,7)-indazola-4(2,5)-bicyclo[3.1.0]hexanacyclopentadecaphane-43-carboxamide], the negative logarithm of the IC50 (pIC50) was above 6.00.
The figure for `CC(=O)c1nn(CC(=O)N2[C@H]3C[C@]4(C[C@@H]24)Cn2cc(nn2)COCc2ccc(Br)nc2NC3=O)c2cnccc12` [Compound T-27, (31R,33S,35R,Z)-32-(2-(3-acetyl-1H-pyrazolo[3,4-c]pyridin-1-yl)acetyl)-66-bromo-11H-8-oxa-32,5-diaza-6(2,3)-pyridina-1(1,4)-triazola-3(5,3)-bicyclo[3.1.0]hexanacyclononaphan-4-one] is above 6.00; for `CC(=O)c1nn2c3c(cc(-c4cnc(C)nc4)cc13)CCCCCCC=CCc1ccc(Br)nc1NC(=O)[C@@H]1C[C@@]3(C)C[C@H]3N1C(=O)C2` [Compound T-37] it is above 6.00.
Regarding `CC(=O)c1nn(CC(=O)N2[C@H]3C[C@@]4(COCCCCCc5ccc(Br)nc5NC3=O)C[C@@H]24)c2ccc(-c3cnc(C)nc3)cc12` [Compound T-38], the negative-log IC50 (pIC50) is above 6.00.
In the case of `CC(=O)c1nn(CC(=O)N2[C@H]3C[C@@]4(COCCCCCCc5ccc(Br)nc5NC3=O)C[C@@H]24)c2ccc(-c3cnc(C)nc3)cc12` [Compound T-39], the pIC50 is above 6.00.
The result for `CC(=O)c1nn(CC(=O)N2[C@H]3C[C@@]4(COCCCCCCCc5ccc(Br)nc5NC3=O)C[C@@H]24)c2ccc(-c3cnc(C)nc3)cc12` [Compound T-40] reads above 6.00; that for `CC(=O)c1nn(CC(=O)N2[C@H]3C[C@@]4(COCCCCCCCc5ccc(Br)nc5NC3=O)C[C@@H]24)c2cnc(-c3cnc(C)nc3)cc12` [Compound T-41], above 6.00.
In the case of `CC(=O)c1nn(CC(=O)N2[C@H]3C[C@@]4(COCCCCCCc5ccc(Br)nc5NC3=O)C[C@@H]24)c2cnc(-c3cnc(C)nc3)cc12` [Compound T-42], the negative-log IC50 (pIC50) was above 6.00.
Regarding `CC(=O)c1nn(CC(=O)N2[C@H]3C[C@@]4(C=CCCCCCCc5ccc(Br)nc5NC3=O)C[C@@H]24)c2cnc(-c3cnc(C)nc3)cc12` [Compound T-43], the pIC50 is above 6.00.
The figure for `CC(=O)c1nn(CC(=O)N2[C@H]3C[C@@]4(COC/C=C/COCc5ccc(Br)nc5NC3=O)C[C@@H]24)c2cnc(-c3cnc(C)nc3)cc12` [Compound T-44] is above 6.00; for `CC(=O)c1nn(CC(=O)N2[C@H]3C[C@@]4(COC/C=C\COCc5ccc(Br)nc5NC3=O)C[C@@H]24)c2cnc(-c3cnc(C)nc3)cc12` [Compound T-45] it is above 6.00.
The figure for `CC(=O)c1nn(CC(=O)N2[C@H]3C[C@@]4(CCCCCCCCc5ccc(Br)nc5NC3=O)C[C@@H]24)c2cnc(-c3cnc(C)nc3)cc12` [Compound T-46] is above 6.00.
